Some results are limits rather than exact numbers.

Common to all, as to assay type: cell-based
Experiment [1] has as its target T1, Transient receptor potential cation channel subfamily V member 4 (Rattus norvegicus, UniProt Q9ERZ8). Description: Agonist activity at rat TRPV4 expressed in HEK293 cells assessed as increase in intracellular calcium level by Fluo-4-AM dye based fluorescence assay.
Experiment [2] has as its target T2, Transient receptor potential cation channel subfamily V member 1 (Homo sapiens, UniProt Q8NER1). In words: Antagonist activity at human TRPV1 expressed in HEK293 cells assessed as inhibition of capsaicin-induced increase in intracellular calcium level pretreated for 5 mins followed by capsaicin addition by Fluo-4-AM dye based fluorescence assay. (In general: A change in cytosolic calcium serves as a functional read-out for many receptors and channels.)

Experiment [3] addresses T3, Transient receptor potential cation channel, subfamily V, member 3 (Rattus norvegicus) (UniProt E9PU00).
T3 sequence (whole entry): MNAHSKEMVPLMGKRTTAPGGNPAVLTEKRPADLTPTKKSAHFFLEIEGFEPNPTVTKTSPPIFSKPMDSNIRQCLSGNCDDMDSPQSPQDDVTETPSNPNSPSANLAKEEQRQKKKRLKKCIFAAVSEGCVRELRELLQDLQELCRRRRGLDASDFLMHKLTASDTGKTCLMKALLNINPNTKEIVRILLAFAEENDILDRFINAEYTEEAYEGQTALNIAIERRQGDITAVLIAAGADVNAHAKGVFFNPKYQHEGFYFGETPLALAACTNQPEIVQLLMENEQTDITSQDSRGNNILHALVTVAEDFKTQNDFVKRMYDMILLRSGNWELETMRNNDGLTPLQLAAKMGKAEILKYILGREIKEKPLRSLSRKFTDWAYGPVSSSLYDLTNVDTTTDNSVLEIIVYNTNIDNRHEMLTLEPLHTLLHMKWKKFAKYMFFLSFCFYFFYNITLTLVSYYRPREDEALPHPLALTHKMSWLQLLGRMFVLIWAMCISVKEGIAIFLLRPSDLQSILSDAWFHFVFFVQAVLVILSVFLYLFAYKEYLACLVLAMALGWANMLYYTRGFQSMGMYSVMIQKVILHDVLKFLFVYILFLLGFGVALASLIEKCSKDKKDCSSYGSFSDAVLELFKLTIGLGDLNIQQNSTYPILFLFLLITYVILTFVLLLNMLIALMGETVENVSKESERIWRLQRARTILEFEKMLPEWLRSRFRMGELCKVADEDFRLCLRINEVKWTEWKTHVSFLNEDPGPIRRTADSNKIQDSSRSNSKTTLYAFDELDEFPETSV
In words: Agonist activity at […] expressed in HEK293 cells assessed as increase in intracellular calcium level by Fluo-4-AM dye based fluorescence assay relative to ionomycin.

The target of experiment [4] is T2, Transient receptor potential cation channel subfamily V member 1. Description: Agonist activity at human TRPV1 expressed in HEK293 cells assessed as increase in intracellular calcium level by Fluo-4-AM dye based fluorescence assay relative to ionomycin.
Experiment [5] deals with T4, Transient receptor potential cation channel subfamily A member 1 (Rattus norvegicus, UniProt Q6RI86). Description: Antagonist activity at rat TRPA1 expressed in HEK293 cells assessed as inhibition of AITC-induced increase in intracellular calcium level pretreated for 5 mins followed by AITC addition by fluo-4-AM dye based fluorescence assay.
Experiment [6] has as its target T2, Transient receptor potential cation channel subfamily V member 1. In words: Agonist activity at human TRPV1 expressed in HEK293 cells assessed as increase in intracellular calcium level by Fluo-4-AM dye based fluorescence assay.
In experiment [7] the target is Transient receptor potential cation channel subfamily A member 1 (Rattus norvegicus) (UniProt Q6RI86). Description: Agonist activity at rat TRPA1 expressed in HEK293 cells assessed as increase in intracellular calcium level by fluo-4-AM dye based fluorescence assay relative to AITC.
Experiment [8] deals with Transient receptor potential cation channel subfamily M member 8 (Rattus norvegicus, UniProt Q8R455). In words: Antagonist activity at rat TRPM8 expressed in HEK293 cells assessed as inhibition of icilin-induced increase in intracellular calcium level pretreated for 5 mins followed by icilin addition by Fluo-4-AM dye based fluorescence assay.
The target in experiment [9] is T5, Transient receptor potential cation channel subfamily V member 2 (Rattus norvegicus, UniProt Q9WUD2).
T5 sequence (Q9WUD2 whole entry): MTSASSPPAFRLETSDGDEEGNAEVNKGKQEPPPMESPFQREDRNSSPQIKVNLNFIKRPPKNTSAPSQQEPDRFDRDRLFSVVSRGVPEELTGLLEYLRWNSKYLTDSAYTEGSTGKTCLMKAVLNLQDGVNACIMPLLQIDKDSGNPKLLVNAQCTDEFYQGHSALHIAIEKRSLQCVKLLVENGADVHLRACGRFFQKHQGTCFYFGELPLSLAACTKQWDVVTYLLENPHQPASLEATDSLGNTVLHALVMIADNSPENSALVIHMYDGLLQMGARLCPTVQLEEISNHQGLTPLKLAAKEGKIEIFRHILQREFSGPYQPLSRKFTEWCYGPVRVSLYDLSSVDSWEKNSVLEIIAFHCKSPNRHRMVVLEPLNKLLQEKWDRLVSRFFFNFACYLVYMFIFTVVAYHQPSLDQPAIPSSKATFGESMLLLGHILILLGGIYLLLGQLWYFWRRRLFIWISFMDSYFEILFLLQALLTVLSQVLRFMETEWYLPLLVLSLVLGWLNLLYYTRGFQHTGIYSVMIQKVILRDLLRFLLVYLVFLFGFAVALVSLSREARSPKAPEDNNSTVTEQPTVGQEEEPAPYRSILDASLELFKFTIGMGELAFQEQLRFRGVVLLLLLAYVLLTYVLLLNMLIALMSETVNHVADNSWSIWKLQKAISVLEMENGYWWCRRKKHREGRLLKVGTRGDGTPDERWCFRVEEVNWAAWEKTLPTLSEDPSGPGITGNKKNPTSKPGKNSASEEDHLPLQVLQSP
Description: Agonist activity at rat TRPV2 expressed in HEK293 cells assessed as increase in intracellular calcium level by Fluo-4-AM dye based fluorescence assay.

Experiment [10] deals with T4, Transient receptor potential cation channel subfamily A member 1. Description: Agonist activity at rat TRPA1 expressed in HEK293 cells assessed as increase in intracellular calcium level by fluo-4-AM dye based fluorescence assay.
For experiment [11], the target named is T6, Transient receptor potential cation channel, subfamily V, member 3 (Rattus norvegicus, UniProt E9PU00).
T6 sequence (E9PU00 whole entry): T3 sequence (whole entry)
In words: Antagonist activity at […] expressed in HEK293 cells assessed as inhibition of thymol-induced increase in intracellular calcium level pretreated for 5 mins followed by thymol addition by Fluo-4-AM dye based fluorescence assay.

Experiment [12] deals with T6, Transient receptor potential cation channel, subfamily V, member 3. Description: Agonist activity at […] expressed in HEK293 cells assessed as increase in intracellular calcium level by Fluo-4-AM dye based fluorescence assay.
Experiment [13] deals with T1, Transient receptor potential cation channel subfamily V member 4. Description: Antagonist activity at […] expressed in HEK293 cells assessed as inhibition of GSK1016790A-induced increase in intracellular calcium level pretreated for 5 mins followed by GSK1016790A addition by Fluo-4-AM dye based fluorescence assay.
Experiment [14] addresses T5, Transient receptor potential cation channel subfamily V member 2. Description: Antagonist activity at rat TRPV2 expressed in HEK293 cells assessed as inhibition of LPC-induced increase in intracellular calcium level pretreated for 5 mins followed by LPC addition by Fluo-4-AM dye based fluorescence assay.
The target of experiment [15] is Transient receptor potential cation channel subfamily V member 4 (Rattus norvegicus) (UniProt Q9ERZ8). Description: Agonist activity at rat TRPV4 expressed in HEK293 cells assessed as increase in intracellular calcium level by Fluo-4-AM dye based fluorescence assay relative to ionomycin.
Experiment [16] has as its target T7, Transient receptor potential cation channel subfamily V member 2 (Rattus norvegicus) (UniProt Q9WUD2).
T7 sequence (whole entry): T5 sequence (Q9WUD2 whole entry)
In words: Agonist activity at rat TRPV2 expressed in HEK293 cells assessed as increase in intracellular calcium level by Fluo-4-AM dye based fluorescence assay relative to ionomycin.

T4 sequence (Q6RI86 whole entry): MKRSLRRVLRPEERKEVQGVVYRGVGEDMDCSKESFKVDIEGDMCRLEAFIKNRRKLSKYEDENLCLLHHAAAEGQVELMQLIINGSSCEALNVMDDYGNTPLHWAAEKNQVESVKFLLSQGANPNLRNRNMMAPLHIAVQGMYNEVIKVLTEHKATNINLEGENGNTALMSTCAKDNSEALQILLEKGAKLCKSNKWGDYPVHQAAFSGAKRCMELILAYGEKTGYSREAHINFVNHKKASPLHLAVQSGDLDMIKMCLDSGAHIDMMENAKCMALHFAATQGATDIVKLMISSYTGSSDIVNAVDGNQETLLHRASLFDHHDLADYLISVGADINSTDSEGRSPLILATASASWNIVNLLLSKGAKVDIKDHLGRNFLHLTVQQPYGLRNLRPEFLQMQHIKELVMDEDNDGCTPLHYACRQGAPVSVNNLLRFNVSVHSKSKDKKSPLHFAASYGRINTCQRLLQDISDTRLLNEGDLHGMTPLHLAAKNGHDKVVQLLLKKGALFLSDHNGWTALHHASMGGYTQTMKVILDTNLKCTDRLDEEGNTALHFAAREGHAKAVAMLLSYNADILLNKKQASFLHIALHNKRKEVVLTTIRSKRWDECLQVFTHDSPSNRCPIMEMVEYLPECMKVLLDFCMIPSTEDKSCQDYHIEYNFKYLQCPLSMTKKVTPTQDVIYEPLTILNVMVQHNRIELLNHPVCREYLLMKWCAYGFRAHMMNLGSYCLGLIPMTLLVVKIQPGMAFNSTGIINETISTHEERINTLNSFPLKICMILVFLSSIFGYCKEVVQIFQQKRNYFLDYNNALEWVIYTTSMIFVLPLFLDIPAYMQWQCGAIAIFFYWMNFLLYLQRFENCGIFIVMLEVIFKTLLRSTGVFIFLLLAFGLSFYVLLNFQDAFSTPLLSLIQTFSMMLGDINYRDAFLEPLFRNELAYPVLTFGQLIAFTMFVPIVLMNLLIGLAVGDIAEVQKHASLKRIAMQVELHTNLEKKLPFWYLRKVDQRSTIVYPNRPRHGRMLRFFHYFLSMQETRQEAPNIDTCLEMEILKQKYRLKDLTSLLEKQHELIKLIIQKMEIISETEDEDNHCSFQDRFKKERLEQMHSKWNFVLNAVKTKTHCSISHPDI
Transient receptor potential cation channel subfamily A member 1 (Rattus norvegicus), sequence (Q6RI86 whole entry): as above
Transient receptor potential cation channel subfamily M member 8, sequence (Q8R455 whole entry): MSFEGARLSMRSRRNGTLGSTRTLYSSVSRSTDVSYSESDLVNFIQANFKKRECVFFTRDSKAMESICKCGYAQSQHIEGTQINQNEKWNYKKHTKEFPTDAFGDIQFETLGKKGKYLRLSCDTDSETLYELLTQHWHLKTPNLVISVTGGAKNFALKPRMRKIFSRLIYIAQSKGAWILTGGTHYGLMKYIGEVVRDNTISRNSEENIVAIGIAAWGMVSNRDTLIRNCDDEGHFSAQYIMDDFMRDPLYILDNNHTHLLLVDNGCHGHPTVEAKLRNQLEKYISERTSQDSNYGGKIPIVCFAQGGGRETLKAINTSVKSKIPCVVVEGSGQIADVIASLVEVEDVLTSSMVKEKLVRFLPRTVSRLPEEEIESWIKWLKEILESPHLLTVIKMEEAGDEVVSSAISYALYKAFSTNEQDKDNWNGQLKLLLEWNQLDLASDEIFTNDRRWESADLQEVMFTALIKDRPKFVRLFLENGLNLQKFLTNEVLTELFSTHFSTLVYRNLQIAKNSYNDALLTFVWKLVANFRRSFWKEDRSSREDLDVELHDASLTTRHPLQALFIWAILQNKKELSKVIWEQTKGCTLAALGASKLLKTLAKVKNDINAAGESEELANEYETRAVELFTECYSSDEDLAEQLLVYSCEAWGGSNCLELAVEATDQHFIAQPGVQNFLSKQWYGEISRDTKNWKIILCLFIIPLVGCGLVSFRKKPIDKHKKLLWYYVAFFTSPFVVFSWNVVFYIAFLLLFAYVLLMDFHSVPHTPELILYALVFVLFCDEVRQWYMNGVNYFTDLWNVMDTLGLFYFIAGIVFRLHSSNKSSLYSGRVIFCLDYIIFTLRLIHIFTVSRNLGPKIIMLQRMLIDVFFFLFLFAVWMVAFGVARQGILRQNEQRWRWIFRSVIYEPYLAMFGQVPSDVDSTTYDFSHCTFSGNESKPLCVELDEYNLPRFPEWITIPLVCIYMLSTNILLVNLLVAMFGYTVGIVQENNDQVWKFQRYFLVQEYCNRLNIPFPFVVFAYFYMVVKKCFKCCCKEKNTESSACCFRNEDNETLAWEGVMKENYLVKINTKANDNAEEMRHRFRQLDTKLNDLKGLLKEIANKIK
T1 sequence (Q9ERZ8 whole entry): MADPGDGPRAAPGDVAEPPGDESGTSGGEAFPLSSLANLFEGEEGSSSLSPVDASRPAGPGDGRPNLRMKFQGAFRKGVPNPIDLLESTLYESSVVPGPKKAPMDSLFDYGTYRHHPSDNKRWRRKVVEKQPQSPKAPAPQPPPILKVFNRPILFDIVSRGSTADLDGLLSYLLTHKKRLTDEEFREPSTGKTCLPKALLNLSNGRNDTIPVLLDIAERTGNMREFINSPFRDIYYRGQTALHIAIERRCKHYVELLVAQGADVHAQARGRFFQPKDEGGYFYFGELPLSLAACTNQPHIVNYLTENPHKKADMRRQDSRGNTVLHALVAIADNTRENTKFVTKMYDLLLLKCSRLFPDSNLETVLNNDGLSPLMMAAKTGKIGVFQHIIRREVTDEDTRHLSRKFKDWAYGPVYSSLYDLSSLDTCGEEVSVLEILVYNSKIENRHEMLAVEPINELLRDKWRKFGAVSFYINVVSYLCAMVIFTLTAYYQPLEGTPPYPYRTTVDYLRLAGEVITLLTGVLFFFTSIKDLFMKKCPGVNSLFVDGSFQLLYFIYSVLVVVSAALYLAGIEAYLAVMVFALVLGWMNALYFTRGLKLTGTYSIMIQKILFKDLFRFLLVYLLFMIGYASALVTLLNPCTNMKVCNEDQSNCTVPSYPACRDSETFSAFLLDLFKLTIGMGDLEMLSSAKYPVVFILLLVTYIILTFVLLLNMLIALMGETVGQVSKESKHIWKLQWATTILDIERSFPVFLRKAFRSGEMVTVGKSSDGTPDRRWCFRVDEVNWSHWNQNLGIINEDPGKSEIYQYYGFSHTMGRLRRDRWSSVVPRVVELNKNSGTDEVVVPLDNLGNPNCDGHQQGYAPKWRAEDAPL
Transient receptor potential cation channel subfamily V member 4 (Rattus norvegicus), sequence (Q9ERZ8 whole entry): as above
T2 sequence (Q8NER1 whole entry): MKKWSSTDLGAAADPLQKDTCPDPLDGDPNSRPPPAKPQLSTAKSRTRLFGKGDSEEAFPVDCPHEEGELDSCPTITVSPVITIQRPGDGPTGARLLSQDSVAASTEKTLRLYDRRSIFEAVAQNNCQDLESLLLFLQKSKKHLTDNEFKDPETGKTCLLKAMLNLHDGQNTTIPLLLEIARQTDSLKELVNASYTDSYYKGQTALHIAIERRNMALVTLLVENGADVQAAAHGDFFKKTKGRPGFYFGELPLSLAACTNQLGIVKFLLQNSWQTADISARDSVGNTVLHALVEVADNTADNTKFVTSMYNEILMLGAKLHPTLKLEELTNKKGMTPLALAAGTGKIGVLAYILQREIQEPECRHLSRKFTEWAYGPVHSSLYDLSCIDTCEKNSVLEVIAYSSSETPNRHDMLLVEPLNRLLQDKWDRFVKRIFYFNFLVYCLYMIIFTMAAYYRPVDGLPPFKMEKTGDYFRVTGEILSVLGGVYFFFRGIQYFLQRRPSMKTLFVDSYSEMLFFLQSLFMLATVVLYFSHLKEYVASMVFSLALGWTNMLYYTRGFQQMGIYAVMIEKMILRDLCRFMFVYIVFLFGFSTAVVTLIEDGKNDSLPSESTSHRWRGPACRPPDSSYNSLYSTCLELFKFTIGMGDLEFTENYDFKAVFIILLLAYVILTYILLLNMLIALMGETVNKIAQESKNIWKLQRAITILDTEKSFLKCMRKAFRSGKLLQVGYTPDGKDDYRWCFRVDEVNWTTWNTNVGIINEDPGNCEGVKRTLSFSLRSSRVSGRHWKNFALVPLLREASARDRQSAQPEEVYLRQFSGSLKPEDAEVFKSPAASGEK

In the case of `CCCCCc1cc(O)c2c(c1)O[C@]1(C2)[C@@H](C)CCCC1(C)C`, the EC50 (commonly the concentration at which the effect is half-maximal) in experiment [1] (read-out: EC50) is 3.3 µM; in experiment [6] (read-out: EC50) it was 1.8 µM; in experiment [9] (read-out: EC50) it was 4.7 µM; in [10] it was 0.49 µM; in experiment [12] (hek293), “Not Active”. The IC50 (in general, the concentration that gives 50% inhibition) in [2] was 7.1 µM; in experiment [5], 0.45 µM; in [8], more than 50 µM; in experiment [11] it was 12.8 µM; in experiment [13], 4.3 µM; in [14], 13.7 µM. Further, the Efficacy in experiment [3] is less than 10%; in experiment [4], 43.9%; in experiment [7] it was 108%; in experiment [15] it was 13.9%; in [16], 37.7%.

With `CCCCCc1cc(O)c2c(c1)O[C@]1(C)CCCC(C)(C)[C@H]1C2`, the EC50 entry is “Not Active” in experiment [1] (hek293); “Not Active” in experiment [6] (hek293); 8.4 µM in experiment [9] (read-out: EC50); 0.23 µM in experiment [10]; “Not Active” in experiment [12] (hek293). Besides, the IC50 in experiment [2] is more than 100 µM; in experiment [5], 0.26 µM; in experiment [8], more than 100 µM; in [11], more than 50 µM; in [13], more than 100 µM; in [14], more than 100 µM. The Efficacy is less than 10% in experiment [3]; less than 10% in [4]; 95.2% in experiment [7]; less than 10% in experiment [15]; 41.3% in experiment [16].

For the compound `CCCCCc1cc(O)c2c(c1)O[C@@]1(C)CCCC(C)(C)[C@H]1C2`, the EC50 entry was “Not Active” in [1] (hek293); 2.6 µM in [6] (read-out: EC50); 5.8 µM in experiment [9] (read-out: EC50); 0.29 µM in [10]; 6.7 µM in experiment [12] (read-out: EC50). The half-inhibitory concentration (IC50) is 5.9 µM in [2]; 0.27 µM in experiment [5]; 17.1 µM in [8]; 8 µM in experiment [11]; 3.9 µM in experiment [13]; more than 100 µM in experiment [14]. For the same compound, the Efficacy in experiment [3] was 17.5%; in experiment [4], 48.5%; in experiment [7] it was 98.5%; in experiment [15], less than 10%; in [16], 31.7%.

With `CCCCCc1cc(O)c2c(c1)OC(C)(CCCC(C)(C)c1ccc(C)cc1)CC2` (stereo unspecified), the EC50 in [1] (read-out: EC50) was 18 µM; in experiment [6] (hek293), “Not Active”; in experiment [9] (hek293) it was “Not Active”; in [10], 0.35 µM; in experiment [12] (hek293) it was “Not Active”. Moreover, the IC50 was more than 50 µM in experiment [2]; 0.32 µM in experiment [5]; more than 100 µM in [8]; more than 50 µM in experiment [11]; more than 100 µM in experiment [13]; 4.5 µM in experiment [14]. Also, the Efficacy was less than 10% in experiment [3]; less than 10% in experiment [4]; 120% in [7]; 18% in experiment [15]; less than 10% in [16].

For `CCCCCc1cc(O)c2c(c1)O[C@]1(C2)[C@H](C)CCCC1(C)C`, the EC50 entry in [1] (hek293) is “Not Active”; in experiment [6] (read-out: EC50), 4.9 µM; in experiment [9] (read-out: EC50), 6.4 µM; in experiment [10], 1.3 µM; in experiment [12] (hek293), “Not Active”. Moreover, the IC50 was 37 µM in [2]; 1.7 µM in experiment [5]; more than 50 µM in experiment [8]; more than 50 µM in [11]; 39.7 µM in experiment [13]; more than 50 µM in experiment [14]. In addition, the Efficacy in experiment [3] is less than 10%; in [4], 32.3%; in [7], 102%; in experiment [15], less than 10%; in experiment [16], 27.5%.

Take `CCCCCc1cc(O)c2c(c1)O[C@]1(C)CC[C@@H](I)C(C)(C)[C@H]1C2`: the EC50 result in experiment [1] (hek293) was “Not Active”; in [6] (hek293), “Not Active”; in experiment [9] (hek293) it was “Not Active”; in [10], 2 µM; in [12] (hek293) it was “Not Active”. The IC50 in experiment [2] is more than 100 µM; in experiment [5], 4.8 µM; in experiment [8], 7.2 µM; in experiment [11] it was more than 50 µM; in [13], more than 100 µM; in experiment [14], 2.3 µM. Further, the Efficacy in experiment [3] is less than 10%; in experiment [4] it was less than 10%; in [7], 90%; in [15] it was less than 10%; in experiment [16], less than 10%.

Values taken from ChEMBL document CHEMBL4229500, “Iodine-mediated cyclization of cannabigerol (CBG) expands the cannabinoid biological and chemical space” (Bioorg Med Chem, 2018).
